Results taken from publication PMC9563500, “Effect of Coffee on the Bioavailability of Sterols” (Foods, 2022).
Where two headings read alike, the source gives them in different places. One block for each compound: values may come before it.

Legend:
[1] = set-up: method as in PMID 17766353; conditions: cited from earlier work
[2] = set-up: method as in PMID 4027244; conditions: aqueous media; cited from earlier work
Caco-2 monolayers [3] = assay: Absorptive (apical to basolateral) DHE permeability assay through Caco-2 monolayers; assay type: in vitro ADME, human
Protocol: (§1) For transport experiments, the Caco-2 monolayers were prepared by seeding the cells at a density of 2.6 × 10^5 cells/cm^2 on 12-well polycarbonate Transwell^TM plates, following protocols previously defined for this assay. The cells were cultured until monolayer differentiation, for a total of 24 days, with culture medium being renewed every two days. On the day of the experiment, the culture medium was removed and replaced by HBSS medium pre-warmed at 37 °C (0.5 mL in the apical and 1.5 mL in the basolateral sides). The cell monolayers were placed in an incubator at 37 °C with a plate orbital shaker (IKA-Schüttler MTS4) at 50 rpm for 8 min. After two washing steps, the transepithelial electrical resistance (TEER) values were measured using a Millicell® ERS-2 voltmeter (Merck). The net TEER values (Ω cm^2) were obtained by subtracting the cell-free filter resistance and multiplying by filter area. All cell monolayers achieved TEER values exceeding 700 Ω cm^2 and were considered adequate for transport experiments.
(§2) In assessing the influence of coffees samples on DHE absorption by intestinal epithelia, the transport was studied in the absorptive way; that is, in the apical (mimicking the intestinal lumen) to the basolateral (mimicking the bloodstream) direction. The solutions of DHE to be applied in the apical side were prepared as follows: first, the lyophilized coffee extracts (16-fold diluted) were dissolved with GCA (10 mM) solution in HBSS. Then, the mixtures were allowed to equilibrated overnight in a 37 °C in a water bath with shaking at 100 rpm. On the day of the experiment, DHE was added to the coffee/GCA mixture or to GCA only (Control) as an aliquot from a DMSO stock of 10 mM DHE. Addition was performed under vigorous vortex mixing to facilitate DHE interaction with the GCA micelles and prevent its precipitation. The final DHE concentration ranged from 10 to 100 μM, corresponding to ≤1% (v/v) DMSO. To allow evaluation of the cell monolayer integrity in each permeability assay, the paracellular marker Lucifer Yellow (LY) was also added to the final mixtures at a concentration of 20 μM. The solutions were maintained at 37 °C until application in the permeability assay, and where optically clear.
(§3) It was therefore necessary to guarantee that the composition of the acceptor compartment in the permeability assay has an adequate ability to solubilize the sterol and allow its quantification. To approach the in vivo conditions in absorptive cholesterol transport, the acceptor compartment contained serum albumin at 100 µM, which corresponds to the concentration usually found in interstitial tissues. Serum albumin binds the cholesterol analog DHE with low to moderate affinity, KB = 5 × 10^4 [37], and at the concentration used DHE solubility is increased by at least an order of magnitude. To decrease the adsorption of DHE to the plate well and to the basolateral membrane, the transport media added to the basolateral side contained additionally 1% (v/v) DMSO. The presence of BSA and DMSO lead to improved sink conditions and higher DHE recoveries. The solutions from the acceptor compartments in the permeability assay where lyophilized directly in the wells of the permeability assay. A small amount of water was then added to facilitate detachment from the plate and solubilize salts and BSA. Ice-cold methanol was then added to dissolve DHE and precipitate the serum albumin. The DHE recovery efficiency when following this procedure was at least 90% (for details see Table S3 of the Supplementary Materials).
(§4) To start the absorptive transport experiments, the HBSS on the apical side was removed and replaced with 450 μL of the test solution (emulsified DHE + LY, emulsified DHE + coffee + LY or LY solutions). After addition of the test solution, 50 μL was collected (corresponding to a time delay of about 2 min) and the inserts were moved to a 12-well plate containing 1.2 mL of the basolateral transport medium. […]

[4] = as above; assay type: in vitro ADME, human; conditions: human, Caco-2, pH 7.4, GCA 10 mM, absence of coffee, 6 h, read-out: DHE apparent permeability coefficient (Papp)
Protocol: as §1, §2, §3, §4

[5] = Solubility of DHE in GCA micelles (DHE fluorescence intensity); assay type: physicochemical; conditions: GCA 10 mM; Figure S6
Protocol: S5 – Solubility of DHE in GCA micelles
The solubility of DHE in the GCA micelles at the concentration of GCA used in the
permeability assays (10 mM) was characterized from variations in DHE fluoresc ence in-
tensity. The c once ntrati on of DHE was varied from 1 to 70 μM, with DHE bei ng ad ded to
the GCA solution by squirti ng a small v olume of a DHE solution i n DMSO (% DMSO < 1
%). The solutions obtai ned were optically clear and stable. However, the flu oresce nce in-
tensity measured in a right-angle geometry was not linearly dependent on the intensity
of light absorbed, Figure S6. This behaviour is in part due to geometr ical constraints due
to the right-angle detection, with a significant fluoresce nce being emitted but not detected.
present as small aggregates.
Figure S6. Dependence of DHE fluorescence intensity ex/em = 324/372 nm on the intensity of light
absorbed by DHE, when added to aqueous solutions containing 10 mM GCA. The hollow symbols
correspond to DHE concentrations equal to 1, 5 and 10 μM, and the filled symbols correspond to
DHE at 25, 50 and 70 μM. The line represents the best fit for the hollow symbols. […]

[6] = set-up: method as in PMID 27079626, PMID 22569559; conditions: cited from earlier work
[7] = 50 mM bile salt concentration; cited from earlier work
[8] = MTT cell viability assay (bile salts and coffee extracts); assay type: cell-based; conditions: human, Caco-2 cells, pH 7.4; for viability at 2 h: Figure S4 (incubation 2 h)
Protocol: The influence of bile salts and coffee extracts on the Caco-2 cells viability was assessed with the MTT assay for determination of mitochondrial activity in active cells. Briefly, the cells were seeded in 96-well plates at a density of 1 × 10^4 cells/well in 200 μL of medium. Cells were then maintained in culture until confluence, for 96 h with medium renewal after 3 days. Solutions of individual bile salts GCDCA, GDCA, GCA and the combination of all three were prepared in the transport buffer HBSS (containing 25 mM HEPES, 0.35 g/L sodium bicarbonate, pH 7.4) at several concentrations above their critical micellar concentration (CMC). Two-fold serial dilutions of individual coffee extracts or mixtures with the bile salts were prepared by diluting the lyophilized extracts in HBSS or HBSS plus bile salts. The following controls were also included: 20% (v/v) of dimethyl sulfoxide (DMSO) in HBSS (positive control) and only HBSS (negative control). The cells were incubated for 6 h with test samples or controls (200 μL). Then, the cells were washed with PBS and incubated with 150 μL of MTT diluted in medium (0.5 mg/mL) for 4 h at 37 °C. Finally, the medium was discarded, and the formazan crystals produced by active cells were solubilized with dimethyl sulfoxide (150 μL) for 15 min under continuous stirring. The absorbances were measured at 570 nm in a Synergy HT Microplate Reader (BioTek Instruments, Inc., Winooski, VT, USA). All conditions were performed in triplicate. Results are expressed as a percentage of cell viability relative to the negative control.

Caco-2 monolayers [9] = assay: Lucifer Yellow paracellular permeability through Caco-2 monolayers (cell monolayer integrity); assay type: in vitro ADME, human
Protocol: as §1, §2
To start the absorptive transport experiments, the HBSS on the apical side was removed and replaced with 450 μL of the test solution (emulsified DHE + LY, emulsified DHE + coffee + LY or LY solutions). After addition of the test solution, 50 μL was collected (corresponding to a time delay of about 2 min) and the inserts were moved to a 12-well plate containing 1.2 mL of the basolateral transport medium. The plate was kept at 37 °C under stirring at 50 rpm for a total period of 6 h, with the assays being performed with either a single point sampling or three-points with 2 h sampling intervals. During the three-point sampling assay, 25 μL of the apical compartment was withdrawn at 2 and 4 h and replaced with fresh HBSS. At each time point indicated, the insert was also moved to another 12-well plate containing fresh basolateral medium (transfer sampling). At the end of the experiment (t6h), the inserts were transferred into empty wells and 50 μL were collected from the apical compartment and the remaining solution was decanted and stored. The 12-well plates with the samples of the basolateral compartments were frozen (−18 °C) and lyophilized. The same procedure was also applied to the aliquots of the apical side. All samples were then stored in a humidity-controlled environment until analysis.
The paracellular permeability of each cell monolayer was assessed by the quantification of LY transport from the apical and basolateral sides. For the samples from the apical side, aliquots of 50 μL were withdrawn at the beginning and end of the permeation experiment. The samples were diluted 30-fold and 100 µL were transferred to a 96-wells plate with clear bottom and black sides (Thermo Scientific Nunc). […]

[10] = average over Table 2 samples (DHE 10, 50 and 100 µM)
[11] = multi-time point assay, LY 20 µM alone or with DHE 10 µM emulsified by GCA 10 mM, without or with coffee extract (16-fold diluted), n = 2

Compound: CC(C)[C@@H](C)C=C[C@@H](C)[C@H]1CC[C@H]2C3=CC=C4C[C@@H](O)CC[C@]4(C)C3=CC[C@]12C [DHE, ergosta-5,7,9(11),22-tetraen-3β-ol]
characteristic rate constant for desorption from membranes ([1]; liquid disordered phase): 0.001 s⁻¹
characteristic rate constant for desorption from membranes ([1]; liquid ordered phase): 6.9e-05 s⁻¹
estimated critical aggregation concentration [2]: 25 nM
DHE in the acceptor (basolateral) compartment (Caco-2 monolayers [3]; DHE 10 µM apical, transfer sampling at 2, 4 and 6 h, detection limit 1.6 pmol): not detected
fraction of DHE that disappears from the apical transport media immediately after addition to the cell monolayers (Caco-2 monolayers [3]; DHE 10 µM, GCA 10 mM, about 2 min, control (no coffee) or with coffee brew diluted 16 times): 18.5 ± 3.9%
additional decrease of DHE in suspension in the apical compartment (Caco-2 monolayers [3]; DHE 10 µM, GCA 10 mM, at 4 and 6 h incubation): about 2%
amount of DHE extracted from the cells (Caco-2 monolayers [3]; end of permeability assay (6 h), DHE 10 µM, GCA 10 mM, control or with coffee brew): 16.3 ± 4.7%
Papp at 6 h, 50 µM ([4]; 50 µM DHE): 0.0017 ×10⁻⁶ cm/s
Papp at 6 h, 100 µM ([4]; 100 µM DHE): 0.026 ×10⁻⁶ cm/s
DHE emulsified by GCA [5]: up to 10 µM

Compound: C[C@H](CCC(=O)NCC(=O)O)[C@H]1CC[C@H]2[C@@H]3[C@H](O)C[C@@H]4C[C@H](O)CC[C@]4(C)[C@H]3C[C@H](O)[C@]12C [GCA, glycocholic acid]
critical micelle concentration (CMC) [6]: 6.5 mM
capacity to emulsify cholesterol [7]: 1.0 mM
viability at 6 h, 15 mM ([8]; GCA 15 mM, 6 h exposure, relative to HBSS control): 80%
viability at 2 h ([8]; GCA in HBSS at concentrations ≤12.5 mM): > 90%

Compound: CC(CCC(=O)NCC(=O)O)C1CCC2C3C(O)CC4CC(O)CCC4(C)C3CCC12C (stereo not drawn) [GCDCA, glycochenodeoxycholic acid]
critical micelle concentration (CMC) [6]: 1.6 mM
capacity to emulsify cholesterol [7]: 1.3 mM

Compound: CC(CCC(=O)NCC(=O)O)C1CCC2C3CCC4CC(O)CCC4(C)C3CC(O)C12C (stereo not drawn) [GDCA, glycodeoxycholic acid]
critical micelle concentration (CMC) [6]: 1.7 mM
capacity to emulsify cholesterol [7]: up to 3 mM
viability at 2 h ([8]; GDCA in HBSS, all tested concentrations (1.56–50 mM)): < 10%

Papp of LY, average value (Caco-2 monolayers [9]; [10]): 1.3e-07 cm/s
amount of LY transported over the 6 h incubation, average value (Caco-2 monolayers [9]; [10]): 0.8%
Papp of LY (×10^−6) (Caco-2 monolayers [9]; multi-time point assay, last time interval of 2 h, LY alone or with DHE 10 µM/GCA 10 mM, without or with coffee extract, n = 2): 0.64 ×10^−6 cm/s
% Transport of LY 0–2 h (Caco-2 monolayers [9]; [11]): 1.6%
% Transport of LY 2–4 h (Caco-2 monolayers [9]; [11]): 0.9%
% Transport of LY 4–6 h (Caco-2 monolayers [9]; [11]): 1.3%
% Transport of LY 6 h (Caco-2 monolayers [9]; single time point 6 h, LY only): 1.6%
Papp of LY (×10^−6) (Caco-2 monolayers [9]; single time point 6 h, LY only): 0.27 ×10^−6 cm/s
Compound: Lucifer yellow CH di-potassium salt [LY]
